The results in this text go back to PubChem BioAssay (NCI).

Molecules are shown by their SMILES. Several values for one entry are separate records, joined by “and”; a condition that tells them apart may be missing. Equal entries are not always repeated.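 Dose response: 5 concentrations. Exposure: 48 h. Format: 96-well plates. Endpoint: linear interpolation; highest concentration if not reached. At the GI50, growth is halved. Definition used: TGI = concentration required for complete inhibition of growth.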

Some test systems named below: OVCAR-8 ovarian; IGROV1 ovarian; RPMI-8226 leukemia; RXF 393 renal; A498 renal; HOP-92 NSCLC; UACC-62 melanoma; DU-145 prostate; SNB-19 CNS; LOX IMVI melanoma.
Common to all, as to experiment: NCI anticancer screen, dose series, 48 h

Regarding `O=C(O)c1ccc2cccnc2c1O`, the GI50 was 1.27 µM with OVCAR-8 ovarian; 1.38 µM in the assay with IGROV1 ovarian; 0.93 µM in the assay with RPMI-8226 leukemia; 1.94 µM in the assay with RXF 393 renal; 0.832 µM with HOP-92 NSCLC; 1.54 µM with UACC-62 melanoma. In addition, the values for the GI50 in the assay with DU-145 prostate, in the assay on SNB-19 CNS and in the assay with LOX IMVI melanoma were 0.828 µM, 1.48 µM and 0.897 µM, respectively. The TGI with OVCAR-8 ovarian was over 59.1 µM; in the assay on IGROV1 ovarian it was 25.8 µM; with RPMI-8226 leukemia, over 21.1 µM; in the assay on RXF 393 renal, 36.4 µM; with A498 renal, over 92.4 µM; in the assay on HOP-92 NSCLC, 2.74 µM. In addition, the TGI was 9.64 µM with UACC-62 melanoma, 42.3 µM with DU-145 prostate, over 100 µM with SNB-19 CNS and 28.4 µM with LOX IMVI melanoma.

As to `O[C@H](CN1CC1)[C@@H](O)CN1CC1`, the GI50 in the assay with OVCAR-8 ovarian was 3.75 µM; with IGROV1 ovarian, 10.7 µM; in the assay on RPMI-8226 leukemia, 6.74 µM; with RXF 393 renal, 7.35 µM; with A498 renal, 5.24 µM; in the assay with HOP-92 NSCLC, 7.62 µM. The GI50 in the assay with UACC-62 melanoma was 3.96 µM; with DU-145 prostate it was 3.25 µM; with SNB-19 CNS, 6.58 µM; in the assay on LOX IMVI melanoma, 2.81 µM. The TGI in the assay with OVCAR-8 ovarian was over 100 µM; in the assay on IGROV1 ovarian it was 33.3 µM; with RPMI-8226 leukemia, over 100 µM; in the assay on RXF 393 renal, 26.1 µM; with A498 renal it was 21.7 µM; in the assay on HOP-92 NSCLC it was 67.9 µM. Besides, the TGI is over 100 µM with UACC-62 melanoma, 26.8 µM in the assay with DU-145 prostate, over 100 µM in the assay on SNB-19 CNS and 28.4 µM in the assay on LOX IMVI melanoma.

In the case of `Cc1nc2sc(C(=O)Nc3cccc(Cl)c3C)c(N)c2cc1C(C)O` (centres undefined), the GI50 with OVCAR-8 ovarian is 0.396 µM; in the assay on IGROV1 ovarian it was 0.414 µM; in the assay on RPMI-8226 leukemia, 0.347 µM; with RXF 393 renal, 0.189 µM; in the assay on A498 renal, 0.0173 µM; in the assay with HOP-92 NSCLC, 4.36 µM. The GI50 was 0.0852 µM with UACC-62 melanoma, 0.329 µM in the assay with DU-145 prostate, 0.293 µM in the assay on SNB-19 CNS and 0.274 µM in the assay with LOX IMVI melanoma. Further, the TGI is over 71.7 µM in the assay with OVCAR-8 ovarian; over 69.6 µM in the assay on IGROV1 ovarian; over 94 µM in the assay with RPMI-8226 leukemia; 18.1 µM in the assay with RXF 393 renal; 0.544 µM in the assay on A498 renal; 53.4 µM with HOP-92 NSCLC. Further, the TGI in the assay with UACC-62 melanoma was 44.9 µM; with DU-145 prostate, over 86.5 µM; in the assay on SNB-19 CNS it was over 100 µM; in the assay with LOX IMVI melanoma, over 44.1 µM.

For `O=C(Nc1cccc([N+](=O)[O-])c1)c1cc2ccccc2cc1O`, the GI50 in the assay on OVCAR-8 ovarian was 3.31 µM; in the assay with IGROV1 ovarian, 1.3 µM; in the assay on RPMI-8226 leukemia, 0.146 µM; in the assay with RXF 393 renal, 2.57 µM; in the assay on A498 renal, 1.41 µM; with HOP-92 NSCLC it was 0.422 µM. Further, the GI50 was 0.685 µM in the assay with UACC-62 melanoma, 3.09 µM in the assay on DU-145 prostate, 2.93 µM in the assay on SNB-19 CNS and 1.87 µM in the assay on LOX IMVI melanoma. Moreover, the TGI is 26.1 µM with OVCAR-8 ovarian; over 26.1 µM with IGROV1 ovarian; 1.06 µM with RPMI-8226 leukemia; 9.05 µM in the assay with RXF 393 renal; 6.19 µM with A498 renal; 4.41 µM in the assay on HOP-92 NSCLC. Also, the TGI is over 49.6 µM with DU-145 prostate, over 100 µM in the assay on SNB-19 CNS and 7.69 µM in the assay on LOX IMVI melanoma.

As to `COc1cc(N=Nc2cccc(S(N)(=O)=O)c2)c2ccccc2c1N`, the TGI in the assay on OVCAR-8 ovarian is 56 µM; with IGROV1 ovarian, 28.4 µM; with RPMI-8226 leukemia, 57.3 µM; in the assay on RXF 393 renal, 33.6 µM; in the assay on A498 renal, 34.7 µM; with HOP-92 NSCLC, over 58 µM. The TGI in the assay on UACC-62 melanoma was determined as 4.19 µM; with DU-145 prostate, 3.43 µM; in the assay on SNB-19 CNS, 42.2 µM; in the assay with LOX IMVI melanoma it was 18.1 µM.

For the compound `O=[N+]([O-])c1ccc(NC(=S)N/N=C(\c2ccccc2)c2ccccn2)cc1`, the GI50 is 0.0275 µM with OVCAR-8 ovarian; 1.2 µM with RPMI-8226 leukemia; 1.41 µM in the assay with A498 renal; 1.32 µM in the assay on HOP-92 NSCLC; 3.4 µM in the assay with UACC-62 melanoma; 1.37 µM with LOX IMVI melanoma. In addition, the TGI with OVCAR-8 ovarian was 1.06 µM and 1.42 µM; with IGROV1 ovarian, 3.18 µM and 3.43 µM; with RPMI-8226 leukemia, 5.6 µM and > 27 µM; in the assay with RXF 393 renal, 2.83 µM and 3.06 µM; in the assay on A498 renal, 2.71 µM and 3.21 µM; in the assay on HOP-92 NSCLC, 3.39 µM and 2.6 µM. Also, the TGI was 2.92 µM with UACC-62 melanoma; 2.84 µM and 4.03 µM in the assay on DU-145 prostate; 3.12 µM and 2.97 µM with SNB-19 CNS; 2.89 µM and 5.03 µM in the assay with LOX IMVI melanoma.

`O=S1(=O)CC(Br)C(Br)C1` (centres undefined): the GI50 with OVCAR-8 ovarian was 4.85 µM; in the assay with IGROV1 ovarian it was 10.6 µM; in the assay on RPMI-8226 leukemia, 12.3 µM; with RXF 393 renal, 1.11 µM; in the assay with A498 renal it was 25.1 µM; with HOP-92 NSCLC, 2.35 µM. The GI50 in the assay on UACC-62 melanoma was 5.39 µM; in the assay with DU-145 prostate it was 4.21 µM; with SNB-19 CNS, 29.4 µM; with LOX IMVI melanoma it was 0.628 µM. The TGI in the assay with OVCAR-8 ovarian turned out to be 18.4 µM; in the assay with IGROV1 ovarian, 28.6 µM; in the assay with RPMI-8226 leukemia, 41.2 µM; with RXF 393 renal, 2.64 µM; in the assay on A498 renal, 55.1 µM; in the assay on HOP-92 NSCLC it was 7.43 µM. The TGI with UACC-62 melanoma is 18.7 µM; in the assay on DU-145 prostate, 15.9 µM; with SNB-19 CNS, over 100 µM; with LOX IMVI melanoma it was 10 µM.

For `Cc1nn2c(/C=C3\C(=O)Nc4ccccc43)c(C)nc2s1`, the GI50 was 77.8 µM in the assay with OVCAR-8 ovarian; 30.6 µM in the assay on IGROV1 ovarian; 49 µM with RPMI-8226 leukemia; 26.2 µM in the assay with RXF 393 renal; 31.3 µM in the assay on A498 renal; 61 µM in the assay with HOP-92 NSCLC. Further, the GI50 with UACC-62 melanoma was 35.5 µM; in the assay on DU-145 prostate it was 75.8 µM; in the assay on SNB-19 CNS it was 45.7 µM; in the assay on LOX IMVI melanoma, 97.1 µM. Further, the TGI is over 100 µM in the assay with OVCAR-8 ovarian; over 100 µM with IGROV1 ovarian; over 100 µM with RPMI-8226 leukemia; 87.6 µM in the assay on RXF 393 renal; over 100 µM in the assay on A498 renal; over 100 µM with HOP-92 NSCLC. In addition, the TGI in the assay on UACC-62 melanoma, in the assay with DU-145 prostate, with SNB-19 CNS and with LOX IMVI melanoma was over 100 µM each time.
